According to patent US9187441B2, “p53-Mdm2 antagonists” (University of Pittsburgh—Of the Commonwealth System of …, priority 2010, dated 2015):
Values after ≈ are worked out from the molar mass of the structure shown. One block for each compound: values may come before it.

Tests used:
Mdm2 [1] = target: T1, Mdm2 (Homo sapiens (Human), UniProt Q00987); assay: Fluorescence polarization (FP) competition binding assay with Mdm2
Description: Fluorescence polarization (FP) assay was employed to measure the binding affinities of small molecules with Mdm2.
Protocol for Fluorescence Polarization (FP) Assay:
Fluorescent polarization experiments were performed as follows. […] The fluorescence intensities parallel (Intparallel) and perpendicular (Intperpedicular) to the plane of excitation were measured in parallel perpendicular black 384-well NBS assay plates (Corning) at room temperature (˜20° C.). […] All fluorescence polarization values were expressed in millipolarization units (mP). […] Competition binding assays were performed using the 10 nM fluorescent P4 peptide and 100 nM Mdm2. Binding constant and inhibition curves were fitted using the SigmaPlot (SPSS Science Software).

[2] = Water (aqueous) solubility; assay type: physicochemical
Mdm2 [3] = target: T1, Mdm2; assay: NMR (AIDA) ligand binding to Mdm2; details: Table 8, Formula II compounds, measured by NMR (AIDA)
Description: All NMR spectra were acquired at 298 K on a Bruker DRX 600 MHz spectrometer equipped with a cryoprobe. Typically, NMR samples contained 0.1-0.2 mM protein in 50 mM KH2PO4 and 50 mM Na2HPO4, pH 7.4, containing 150 mM NaCl and 5 mM β-Mercaptoethanol. Water suppression was carried out using the WATERGATE sequence. NMR data were processed using the Bruker program Xwin-NMR version 3.5. NMR ligand binding experiments were carried out in an analogous way to those previously described. See D'Silva L., et. al., J. Am. Chem. Soc. 2005, 127, 13220-13226 and Popowicz G. M., et. al., Cell Cycle. 2007, 6, 2386-2392. The maximum concentration of DMSO at the end of titration experiments was less than 1%. The pH was maintained constant during the entire titration. The 1H-15N-HSQC spectra were recorded using fast HSQC pulse sequence as described by Mori et. al., J. Magn. Reson. B 1995, 108, 94-98.
The binding constants (Ki values), of representative Formula II compounds was determined using fluorescence polarization or NMR spectroscopy and are illustrated in Table 8.

[4] = Table 8, Formula II compounds, measured by FP
[5] = read-out: Ki (inhibition constant), Table 1, compounds 8 (C-2 ethyl esters), FP assay, n.i. = no interaction
[6] = Table 1, compounds 8 (C-2 ethyl esters), FP assay, n.i. = no interaction

T1 sequence (Q00987 whole entry): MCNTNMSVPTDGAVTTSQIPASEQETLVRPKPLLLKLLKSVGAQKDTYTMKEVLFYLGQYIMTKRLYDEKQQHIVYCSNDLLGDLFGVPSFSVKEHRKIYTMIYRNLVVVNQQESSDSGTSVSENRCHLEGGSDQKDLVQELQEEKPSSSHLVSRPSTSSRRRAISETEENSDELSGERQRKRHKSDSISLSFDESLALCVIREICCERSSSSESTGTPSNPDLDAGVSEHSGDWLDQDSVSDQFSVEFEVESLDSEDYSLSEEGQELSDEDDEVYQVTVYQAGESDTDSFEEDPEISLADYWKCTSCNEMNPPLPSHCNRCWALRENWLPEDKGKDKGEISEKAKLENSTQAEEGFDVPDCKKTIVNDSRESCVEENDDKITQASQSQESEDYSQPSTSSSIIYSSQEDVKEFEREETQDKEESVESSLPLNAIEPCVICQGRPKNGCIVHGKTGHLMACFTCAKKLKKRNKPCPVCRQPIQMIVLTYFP

Ki (Mdm2 [1]; [4]): 9 µM
SMILES: CC(C)CC(NC(C(=O)NCc1ccccc1)c1c(C(=O)O)[nH]c2cc(Cl)ccc12)C(=O)NCCO (stereo not shown) [KK278, 3-(2-(benzylamino)-1-((1-((2-hydroxyethyl)amino)-4-methyl-1-oxopentan-2-yl)amino)-2-oxoethyl)-6-chloro-1H-indole-2-carboxylic acid]

Ki (Mdm2 [1]): 1.7 µM
SMILES: CC(C)(C)NC(=O)C(c1c(C(=O)O)[nH]c2cc(Cl)ccc12)N(C=O)Cc1ccccc1F (stereo not shown) [Compound 7D, 3-(2-(tert-butylamino)-1-(N-(2-fluorobenzyl)formamido)-2-oxoethyl)-6-chloro-1H-indole-2-carboxylic acid]

Ki (Mdm2 [1]; read-out: Ki (inhibition constant), Table 2, compounds 9 (free C-2 carboxylic acids), FP assay): 2.5 µM
SMILES: CC(C)(C)NC(=O)C(c1c(C(=O)O)[nH]c2cc(Cl)ccc12)N(C=O)Cc1ccc(-c2ccccc2)cc1 (stereo not shown) [Compound 9s, 3-(1-(N-(biphenyl-4-ylmethyl)formamido)-2-(tert-butylamino)-2-oxoethyl)-6-chloro-1H-indole-2-carboxylic acid]

aqueous solubility [2]: 100 µg/mL (≈ 172 µM)
SMILES: COc1ccc(C2=N[C@@H](c3ccc(Cl)cc3)[C@@H](c3ccc(Cl)cc3)N2C(=O)N2CCNC(=O)C2)c(OC(C)C)c1 [Nutlin-3a, reference compound]

Ki (Mdm2 [1]): 2.5 µM
SMILES: CC(C)(C)NC(=O)C(c1c(C(=O)O)[nH]c2cc(Cl)ccc12)N(C=O)Cc1cc(F)ccc1F (stereo not shown) [Compound 7H, 3-(2-(tert-butylamino)-1-(N-(2,5-difluorobenzyl)formamido)-2-oxoethyl)-6-chloro-1H-indole-2-carboxylic acid]

Ki (inhibition constant) (Mdm2 [1]; [6]): n.i.
SMILES: CCOC(=O)c1[nH]c2cc(Cl)ccc2c1C(C(=O)NC(C)(C)C)N(C=O)Cc1ccc(-c2ccccc2)cc1 (stereo not shown) [Compound 8s, Ethyl 3-(1-(N-(biphenyl-4-ylmethyl)formamido)-2-(tert-butylamino)-2-oxoethyl)-6-chloro-1H-indole-2-carboxylate]

solubility ([2]; aqueous medium): 850 µg/mL (≈ 1710 µM)
SMILES: CC(C)(C)NC(=O)C(c1c(C(=O)O)[nH]c2cc(Cl)ccc12)N(C=O)Cc1cc(F)c(F)c(F)c1 (stereo not shown) [Compound 7M, 3-(2-(tert-butylamino)-2-oxo-1-(N-(3,4,5-trifluorobenzyl)formamido)ethyl)-6-chloro-1H-indole-2-carboxylic acid]

Ki (Mdm2 [1]; [5]): 4 µM
SMILES: CCOC(=O)c1[nH]c2cc(Cl)ccc2c1C(C(=O)NCc1ccccc1)N(CC(C)C)C(C)=O (stereo not shown) [Compound 8c, Ethyl 3-(2-(benzylamino)-1-(N-isobutylacetamido)-2-oxoethyl)-6-chloro-1H-indole-2-carboxylate]

Ki (Mdm2 [1]; [4]): < 1 µM
SMILES: CCOC(=O)c1[nH]c2cc(Cl)ccc2c1C(N[C@H](C(=O)OC)C(C)C)C(=O)NCc1ccccc1 (stereo partly drawn) [KK228, Ethyl 3-(2-(benzylamino)-1-(((S)-1-methoxy-3-methyl-1-oxobutan-2-yl)amino)-2-oxoethyl)-6-chloro-1H-indole-2-carboxylate]

Ki (Mdm2 [3]): 1.7 µM
SMILES: CCOC(=O)c1[nH]c2cc(Cl)ccc2c1C(NC(CC(C)C)C(=O)OC)C(=O)NCc1ccccc1 (stereo in doubt) [KK229, Ethyl 3-(2-(benzylamino)-1-(((R)-1-methoxy-4-methyl-1-oxopentan-2-yl)amino)-2-oxoethyl)-6-chloro-1H-indole-2-carboxylate]

Ki (inhibition constant) (Mdm2 [1]; [6]): n.i.
SMILES: CCOC(=O)c1[nH]c2cc(Cl)ccc2c1C(C(=O)NC(C)(C)C)N(C=O)Cc1ccc(Oc2ccccc2)cc1 (stereo not shown) [Compound 8t, Ethyl 3-(2-(tert-butylamino)-2-oxo-1-(N-(4-phenoxybenzyl)formamido)ethyl)-6-chloro-1H-indole-2-carboxylate]

Second part, the compound before the results:

SMILES: CCOC(=O)c1[nH]c2cc(Cl)ccc2c1C(C(=O)NC1CCCCC1)N(Cc1ccc(Cl)c(Cl)c1)C(C)=O (stereo not shown) [Compound 8g, Ethyl 6-chloro-3-(2-(cyclohexylamino)-1-(N-(3,4-dichlorobenzyl)acetamido)-2-oxoethyl)-1H-indole-2-carboxylate]
Ki (Mdm2 [1]; [5]): 9 µM

SMILES: CCOC(=O)c1[nH]c2cc(Cl)ccc2c1C(NC(CC(C)C)C(=O)NCCO)C(=O)NCc1ccccc1 (stereo in doubt) [KK259, Ethyl 3-(2-(benzylamino)-1-(((S)-1-((2-hydroxyethyl)amino)-4-methyl-1-oxopentan-2-yl)amino)-2-oxoethyl)-6-chloro-1H-indole-2-carboxylate]
Ki (Mdm2 [1]; [4]): 9 µM

SMILES: CCOC(=O)c1[nH]c2cc(Cl)ccc2c1C(N[C@@H](CC(C)C)C(=O)NCCN1CCOCC1)C(=O)NCc1ccccc1 (stereo partly drawn) [KK242, Ethyl 3-(2-(benzylamino)-1-(((S)-4-methyl-1-((2-morpholinoethyl)amino)-1-oxopentan-2-yl)amino)-2-oxoethyl)-6-chloro-1H-indole-2-carboxylate]
Ki (Mdm2 [1]; [4]): 10 µM

SMILES: CCOC(=O)c1[nH]c2cc(Cl)ccc2c1C(NC(CC(C)C)C(=O)O)C(=O)NCc1ccccc1 (stereo not shown) [KK272, 2-((2-(benzylamino)-1-(6-chloro-2-(ethoxycarbonyl)-1H-indol-3-yl)-2-oxoethyl)amino)-4-methylpentanoic acid]
Ki (Mdm2 [1]; [4]): 1.4 µM

SMILES: CC(C)CC(NC(C(=O)NCc1ccccc1)c1c(C(=O)O)[nH]c2cc(Cl)ccc12)C(=O)NCCN1CCOCC1 (stereo not shown) [KK273, 3-(2-(benzylamino)-1-(4-methyl-1-(2-morpholinoethylamino)-1-oxopentan-2-ylamino)-2-oxoethyl)-6-chloro-1H-indole-2-carboxylic acid]
Ki (Mdm2 [3]): 0.4 µM

SMILES: CC(C)CC(NC(C(=O)NCc1ccccc1)c1c(C(=O)O)[nH]c2cc(Cl)ccc12)C(=O)NCCCN1CCOCC1 (stereo not shown) [KK279, 3-(2-(benzylamino)-1-((4-methyl-1-((3-morpholinopropyl)amino)-1-oxopentan-2-yl)amino)-2-oxoethyl)-6-chloro-1H-indole-2-carboxylic acid]
Ki (Mdm2 [1]; [4]): 7 µM

SMILES: CCOC(=O)c1[nH]c2cc(Cl)ccc2c1C(C(=O)NC1CCCCC1)N(C=O)Cc1ccc(F)cc1 (stereo not shown) [Compound 8k, Ethyl 6-chloro-3-(2-(cyclohexylamino)-1-(N-(4-fluorobenzyl)formamido)-2-oxoethyl)-1H-indole-2-carboxylate]
Ki (Mdm2 [1]; [5]): 30 µM

SMILES: CCOC(=O)c1[nH]c2cc(Cl)ccc2c1C(NC(CC(C)C)C(=O)NCCCN1CCOCC1)C(=O)NCc1ccccc1 (stereo in doubt) [KK261, Ethyl 3-(2-(benzylamino)-1-(((S)-4-methyl-1-((3-morpholinopropyl)amino)-1-oxopentan-2-yl)amino)-2-oxoethyl)-6-chloro-1H-indole-2-carboxylate]
Ki (Mdm2 [1]; [4]): 11 µM

SMILES: CC(C)(C)NC(=O)C(c1c(C(=O)O)[nH]c2cc(Cl)ccc12)N(C=O)Cc1cccc(F)c1 (stereo not shown) [Compound 7C, 3-(2-(tert-butylamino)-1-(N-(3-fluorobenzyl)formamido)-2-oxoethyl)-6-chloro-1H-indole-2-carboxylic acid]
Ki (Mdm2 [1]): 0.81 µM

SMILES: CCOC(=O)c1[nH]c2cc(Cl)ccc2c1C(C(=O)NC1CCCCC1)N(C=O)Cc1ccc(Cl)cc1 (stereo not shown) [Compound 8j, Ethyl 6-chloro-3-(1-(N-(4-chlorobenzyl)formamido)-2-(cyclohexylamino)-2-oxoethyl)-1H-indole-2-carboxylate]
Ki (Mdm2 [1]; [5]): 50 µM

SMILES: CCOC(=O)c1[nH]c2cc(Cl)ccc2c1C(C(=O)NCc1ccccc1)N(Cc1ccccc1)C(C)=O (stereo not shown) [Compound 8d, Ethyl 3-(1-(N-benzylacetamido)-2-(benzylamino)-2-oxoethyl)-6-chloro-1H-indole-2-carboxylate]
Ki (Mdm2 [1]; read-out: Ki (inhibition constant)): 6 µM
